Measured values reported in ChEMBL document CHEMBL1817656, “De novo design, synthesis and biological evaluation of 1,4-dihydroquinolin-4-ones and 1,2,3,4-tetrahydroquinazolin-4-ones as potent kinesin spindle protein (KSP) inhibitors” (Bioorg Med Chem, 2011).
The source made the active and inactive calls. The calls are words filed in the database; no cut-off is given here.

How the values were obtained:
A549 [1] = assay: Cell cycle arrest in human A549 cells assessed as accumulation at G1 phase at 8 uM after 24 hrs using propidium iodide staining by flow cytometry (reference value: 81.45%); type: functional
A549 [2] = assay: Cell cycle arrest in human A549 cells assessed as accumulation at G1 phase at 12 uM after 24 hrs using propidium iodide staining by flow cytometry (reference value: 81.45%); type: functional
A549 [3] = assay: Cell cycle arrest in human A549 cells assessed as accumulation at G1 phase at 16 uM after 24 hrs using propidium iodide staining by flow cytometry (reference value: 81.45%); type: functional
A549 [4] = assay: Cell cycle arrest in human A549 cells assessed as accumulation at G2/M phase at 16 uM after 24 hrs using propidium iodide staining by flow cytometry (reference value: 8.76%); type: functional
A549 [5] = assay: Cell cycle arrest in human A549 cells assessed as accumulation at G2/M phase at 8 uM after 48 hrs using propidium iodide staining by flow cytometry (reference value: 8.7%); type: functional
A549 [6] = assay: Cell cycle arrest in human A549 cells assessed as accumulation at G1 phase at 12 uM after 48 hrs using propidium iodide staining by flow cytometry (reference value: 63.97%); type: functional
A549 [7] = assay: Cell cycle arrest in human A549 cells assessed as accumulation at G1 phase at 16 uM after 48 hrs using propidium iodide staining by flow cytometry (reference value: 63.97%); type: functional
A549 [8] = assay: Induction of apoptosis in human A549 cells assessed as viable cells at 8 uM after 24 hrs using Annexin V/propidium iodide staining double staining by flow cytometry (reference value: 98.8%); type: functional; conditions: A549, 24 h, read-out: Activity
A549 [9] = assay: Induction of apoptosis in human A549 cells assessed as early apoptotic cells at 8 uM after 24 hrs using Annexin V/propidium iodide staining double staining by flow cytometry (reference value: 0.4%); type: functional
A549 [10] = assay: Induction of apoptosis in human A549 cells assessed as necrotic cells at 12 uM after 24 hrs using Annexin V/propidium iodide staining double staining by flow cytometry (reference value: 0.8%); type: functional
A549 [11] = assay: Induction of apoptosis in human A549 cells assessed as late apoptotic cells at 12 uM after 24 hrs using Annexin V/propidium iodide staining double staining by flow cytometry (reference value: 0.1%); type: functional
A549 [12] = assay: Induction of apoptosis in human A549 cells assessed as early apoptotic cells at 12 uM after 24 hrs using Annexin V/propidium iodide staining double staining by flow cytometry (reference value: 0.4%); type: functional
A549 [13] = assay: Induction of apoptosis in human A549 cells assessed as necrotic cells at 16 uM after 24 hrs using Annexin V/propidium iodide staining double staining by flow cytometry (reference value: 0.8%); type: functional
A549 [14] = assay: Induction of apoptosis in human A549 cells assessed as viable cells at 12 uM after 26 hrs using Annexin V/propidium iodide staining double staining by flow cytometry (reference value: 98.8%); type: functional; conditions: A549, 26 h, read-out: Activity
A549 [15] = assay: Induction of apoptosis in human A549 cells assessed as early apoptotic cells at 16 uM after 24 hrs using Annexin V/propidium iodide staining double staining by flow cytometry (reference value: 0.4%); type: functional
A549 [16] = assay: Induction of apoptosis in human A549 cells assessed as live cells with intact mitochondrial membrane potential at 8 uM after 24 hrs using JC-1 staining double staining by flow cytometry (reference value: 62.6%); type: functional
A549 [17] = assay: Induction of apoptosis in human A549 cells assessed as apoptotic cells with lost mitochondrial potential at 8 uM after 24 hrs using JC-1 staining double staining by flow cytometry (reference value: 37.2%); type: functional
A549 [18] = assay: Induction of apoptosis in human A549 cells assessed as live cells with intact mitochondrial membrane potential at 12 uM after 24 hrs using JC-1 staining double staining by flow cytometry (reference value: 62.6%); type: functional
A549 [19] = assay: Induction of apoptosis in human A549 cells assessed as live cells with intact mitochondrial membrane potential at 16 uM after 24 hrs using JC-1 staining double staining by flow cytometry (reference value: 62.6%); type: functional
A549 [20] = assay: Induction of apoptosis in human A549 cells assessed as apoptotic cells with lost mitochondrial potential at 16 uM after 24 hrs using JC-1 staining double staining by flow cytometry (reference value: 37.2%); type: functional
A549 [21] = assay: Induction of apoptosis in human A549 cells assessed as decrease of Bcl-2 expression at 8 to 16 uM after 24 hrs by Western blotting; type: functional, cell-based
A549 [22] = assay: Induction of apoptosis in human A549 cells assessed as increase of Bax expression at 8 to 16 uM after 24 hrs by Western blotting; type: functional, cell-based
Mus musculus = assay: Toxicity in mouse S180 cells xenografted ICR mouse assessed as change in body weight at 25 mg/kg, ip administered for 10 days every other day measured on day 11 (reference value: 26.22 +/- 2.22 gram); type: organism-based, CCRF S-180; design: dose 25 mg/kg, route intraperitoneal; conditions: in vivo, 240 h
CCRF S-180 = assay: Antitumor activity against mouse S180 cells xenografted in ICR mouse assessed as tumor growth inhibition at 50 mg/kg, ip administered for 10 days every other day measured on day 11 relative to control; type: functional; conditions: CCRF S-180, ip, route intraperitoneal, read-out: TGI

O=C1c2cc(N3CCCCC3)ccc2NC(Cc2ccccc2)N1c1ccc(O)cc1 (racemic)
Activity (A549 [1]): 15.83% | Activity (A549 [2]): 20.35% | Activity (A549 [3]): 14.64% | Activity (A549 [4]): 65.85% | Activity (A549 [5]): 42.94% | Activity (A549 [6]): 12.99% | Activity (A549 [7]): 1.13% | viability at 8 µM (A549 [8]): 78.5% | Activity (A549 [9]): 18.3% | Activity (A549 [10]): 1% | Activity (A549 [11]): 1.2% | Activity (A549 [12]): 24.1% | Activity (A549 [13]): 0.9% | viability at 12 µM (A549 [14]): 47.6% | Activity (A549 [15]): 48% | Activity (A549 [16]): 11.4% | Activity (A549 [17]): 88.5% | Activity (A549 [18]): 7.3% | Activity (A549 [19]): 4.8% | Activity (A549 [20]): 95.2% | Activity (A549 [21]): Active | Activity (A549 [22]): Active | Activity (Mus musculus): 25.2 g | inhibition in vivo at 50 mg/kg (CCRF S-180): 47.7%
